From the supplement of paper PMC11208160 come the findings set out here.

The series is described as follows: recombinant barcode read abundance after kanamycin selection (control-corrected) (log10(CPM+1)); higher = more efficient recombination; sequences stand for … in AGTGCAGAGAAAATCGGCCAGTTTTCTCTGCCTGCAGTCCGCATGCCGT…ATTTATGCAGCGGACTGCCTTTCTCCCAAAGTGATAAACCGGACAGTATCATGGACCGGTTTTCCCGGTAATCCGTATTTGCAAGGTTGGTTTCACT; site = the 11-nt target. Here is the method:
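Same pooled E. coli target screen (IS621 bridge recombinase, kanamycin selection, control-corrected CPM, mean of 2 biological replicates). Here the two core-binding nucleotides of the LTG and RTG of the bridge RNA target-binding loop are mutated. Target and donor CT cores are held constant, and the other 9 guide positions match the target. The target is read from the library oligo sequence. Molecule = full bridge RNA written as DNA: nt 1-80 from the library oligo, rest WT scaffold.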

As to “AAACAGTTTTGGGTTCTAACCTGTTGCCTAA [AAACAGTCTAG_LTGcore_TT_RTGcore_TT] (site AAACAGTCTAG) (LTG core: TT, RTG core: TT)”, the “recombinant barcode read abundance (log10)” value is 0.182.
In the case of “AAACATGAGTGGGTTCTAACCTGTTGCCTAG [AAACATGCTAG_LTGcore_AG_RTGcore_CT] (site AAACATGCTAG) (LTG core: AG, RTG core: CT)”, the “recombinant barcode read abundance (log10)” value was 0.109.
Consider “AAACATGAGTGGGTTCTAACCTGTTGCCTCT [AAACATGCTAG_LTGcore_AG_RTGcore_AG] (site AAACATGCTAG) (LTG core: AG, RTG core: AG)”, for which the “recombinant barcode read abundance (log10)” value was determined as 0.191.
“AAACATGCGTGGGTTCTAACCTGTTGCCTCG [AAACATGCTAG_LTGcore_CG_RTGcore_CG] (site AAACATGCTAG) (LTG core: CG, RTG core: CG)”: the “recombinant barcode read abundance (log10)” value worked out at 0.135.
Regarding “AAACATGCTTGGGTTCTAACCTGTTGCCTAT [AAACATGCTAG_LTGcore_CT_RTGcore_AT] (site AAACATGCTAG) (LTG core: CT, RTG core: AT)”, the “recombinant barcode read abundance (log10)” value was 0.681.
Then “AAACATGCTTGGGTTCTAACCTGTTGCCTCA [AAACATGCTAG_LTGcore_CT_RTGcore_TG] (site AAACATGCTAG) (LTG core: CT, RTG core: TG)”, with 0.288.
As to “AAACATGCTTGGGTTCTAACCTGTTGCCTCG [AAACATGCTAG_LTGcore_CT_RTGcore_CG] (site AAACATGCTAG) (LTG core: CT, RTG core: CG)”, the “recombinant barcode read abundance (log10)” value came to 1.02.
With “AAACATGCTTGGGTTCTAACCTGTTGCCTCT [AAACATGCTAG_LTGcore_CT_RTGcore_AG] (site AAACATGCTAG) (LTG core: CT, RTG core: AG)”, the “recombinant barcode read abundance (log10)” value came out at 0.435.
For the sequence “AAACATGCTTGGGTTCTAACCTGTTGCCTGT [AAACATGCTAG_LTGcore_CT_RTGcore_AC] (site AAACATGCTAG) (LTG core: CT, RTG core: AC)”, the “recombinant barcode read abundance (log10)” value is 1.55.
As to “AAACATGCTTGGGTTCTAACCTGTTGCCTTC [AAACATGCTAG_LTGcore_CT_RTGcore_GA] (site AAACATGCTAG) (LTG core: CT, RTG core: GA)”, the “recombinant barcode read abundance (log10)” value turned out to be 0.572.
Then “AAACATGCTTGGGTTCTAACCTGTTGCCTTG [AAACATGCTAG_LTGcore_CT_RTGcore_CA] (site AAACATGCTAG) (LTG core: CT, RTG core: CA)”, with 1.17; and “AAACATGGATGGGTTCTAACCTGTTGCCTTC [AAACATGCTAG_LTGcore_GA_RTGcore_GA] (site AAACATGCTAG) (LTG core: GA, RTG core: GA)”, with 0.0557.
For the sequence “AAACATGGTTGGGTTCTAACCTGTTGCCTAG [AAACATGCTAG_LTGcore_GT_RTGcore_CT] (site AAACATGCTAG) (LTG core: GT, RTG core: CT)”, the “recombinant barcode read abundance (log10)” value is 0.108.
In the case of “AAACATGTTTGGGTTCTAACCTGTTGCCTAG [AAACATGCTAG_LTGcore_TT_RTGcore_CT] (site AAACATGCTAG) (LTG core: TT, RTG core: CT)”, the “recombinant barcode read abundance (log10)” value was 0.0409.
On to “ACGGGACAATGGGTTCTAACCTGTTGCAGAG [ACGGGACCTCT_LTGcore_AA_RTGcore_CT] (site ACGGGACCTCT) (LTG core: AA, RTG core: CT)”, for which the “recombinant barcode read abundance (log10)” value was 0.0324.
As for “ACGGGACAATGGGTTCTAACCTGTTGCAGTT [ACGGGACCTCT_LTGcore_AA_RTGcore_AA] (site ACGGGACCTCT) (LTG core: AA, RTG core: AA)”, the “recombinant barcode read abundance (log10)” value was 0.298.
As for “ACGGGACAGTGGGTTCTAACCTGTTGCAGCT [ACGGGACCTCT_LTGcore_AG_RTGcore_AG] (site ACGGGACCTCT) (LTG core: AG, RTG core: AG)”, the “recombinant barcode read abundance (log10)” value was found to be 0.237.
For the sequence “ACGGGACCCTGGGTTCTAACCTGTTGCAGGG [ACGGGACCTCT_LTGcore_CC_RTGcore_CC] (site ACGGGACCTCT) (LTG core: CC, RTG core: CC)”, the “recombinant barcode read abundance (log10)” value stood at 1.21.
Turning to “ACGGGACCTTGGGTTCTAACCTGTTGCAGAC [ACGGGACCTCT_LTGcore_CT_RTGcore_GT] (site ACGGGACCTCT) (LTG core: CT, RTG core: GT)”, the “recombinant barcode read abundance (log10)” value is 0.9.
With “ACGGGACCTTGGGTTCTAACCTGTTGCAGAT [ACGGGACCTCT_LTGcore_CT_RTGcore_AT] (site ACGGGACCTCT) (LTG core: CT, RTG core: AT)”, the “recombinant barcode read abundance (log10)” value came out at 1.4.
Then “ACGGGACCTTGGGTTCTAACCTGTTGCAGGA [ACGGGACCTCT_LTGcore_CT_RTGcore_TC] (site ACGGGACCTCT) (LTG core: CT, RTG core: TC)”, with 0.528; and “ACGGGACGATGGGTTCTAACCTGTTGCAGAG [ACGGGACCTCT_LTGcore_GA_RTGcore_CT] (site ACGGGACCTCT) (LTG core: GA, RTG core: CT)”, with 0.81.
Regarding “ACGGGACGCTGGGTTCTAACCTGTTGCAGAG [ACGGGACCTCT_LTGcore_GC_RTGcore_CT] (site ACGGGACCTCT) (LTG core: GC, RTG core: CT)”, the “recombinant barcode read abundance (log10)” value worked out at 0.257.
As to “ACGGGACGGTGGGTTCTAACCTGTTGCAGAG [ACGGGACCTCT_LTGcore_GG_RTGcore_CT] (site ACGGGACCTCT) (LTG core: GG, RTG core: CT)”, the “recombinant barcode read abundance (log10)” value came to 0.14.
Regarding “ACGGGACTGTGGGTTCTAACCTGTTGCAGAG [ACGGGACCTCT_LTGcore_TG_RTGcore_CT] (site ACGGGACCTCT) (LTG core: TG, RTG core: CT)”, the “recombinant barcode read abundance (log10)” value worked out at 0.397.
Then “ACGGGACTGTGGGTTCTAACCTGTTGCAGCA [ACGGGACCTCT_LTGcore_TG_RTGcore_TG] (site ACGGGACCTCT) (LTG core: TG, RTG core: TG)”, with 0.179; and “ACGGGACTTTGGGTTCTAACCTGTTGCAGAA [ACGGGACCTCT_LTGcore_TT_RTGcore_TT] (site ACGGGACCTCT) (LTG core: TT, RTG core: TT)”, with 0.0398.
As to “ACGGGACTTTGGGTTCTAACCTGTTGCAGAG [ACGGGACCTCT_LTGcore_TT_RTGcore_CT] (site ACGGGACCTCT) (LTG core: TT, RTG core: CT)”, the “recombinant barcode read abundance (log10)” value was 0.0241.
Turning to “AGGAGGTAATGGGTTCTAACCTGTTGCCTAG [AGGAGGTCTAG_LTGcore_AA_RTGcore_CT] (site AGGAGGTCTAG) (LTG core: AA, RTG core: CT)”, the “recombinant barcode read abundance (log10)” value is 0.278.
For the sequence “AGGAGGTAGTGGGTTCTAACCTGTTGCCTAG [AGGAGGTCTAG_LTGcore_AG_RTGcore_CT] (site AGGAGGTCTAG) (LTG core: AG, RTG core: CT)”, the “recombinant barcode read abundance (log10)” value came out at 0.122.
For the sequence “AGGAGGTCTTGGGTTCTAACCTGTTGCCTGC [AGGAGGTCTAG_LTGcore_CT_RTGcore_GC] (site AGGAGGTCTAG) (LTG core: CT, RTG core: GC)”, the “recombinant barcode read abundance (log10)” value was found to be 0.814.
As for “AGGAGGTCTTGGGTTCTAACCTGTTGCCTGG [AGGAGGTCTAG_LTGcore_CT_RTGcore_CC] (site AGGAGGTCTAG) (LTG core: CT, RTG core: CC)”, the “recombinant barcode read abundance (log10)” value is 0.551.
On to “AGGAGGTGATGGGTTCTAACCTGTTGCCTAG [AGGAGGTCTAG_LTGcore_GA_RTGcore_CT] (site AGGAGGTCTAG) (LTG core: GA, RTG core: CT)”, for which the “recombinant barcode read abundance (log10)” value is 0.417.
For “AGGAGGTTATGGGTTCTAACCTGTTGCCTAG [AGGAGGTCTAG_LTGcore_TA_RTGcore_CT] (site AGGAGGTCTAG) (LTG core: TA, RTG core: CT)”, the “recombinant barcode read abundance (log10)” value was determined as 0.0987.
Turning to “AGGAGGTTTTGGGTTCTAACCTGTTGCCTAG [AGGAGGTCTAG_LTGcore_TT_RTGcore_CT] (site AGGAGGTCTAG) (LTG core: TT, RTG core: CT)”, the “recombinant barcode read abundance (log10)” value came out at 0.0313.
For the sequence “AGGCCTCCATGGGTTCTAACCTGTTGCCTAG [AGGCCTCCTAG_LTGcore_CA_RTGcore_CT] (site AGGCCTCCTAG) (LTG core: CA, RTG core: CT)”, the “recombinant barcode read abundance (log10)” value came out at 0.44.
Regarding “AGGCCTCCTTGGGTTCTAACCTGTTGCCTAG [AGGCCTCCTAG_LTGcore_CT_RTGcore_CT] (site AGGCCTCCTAG) (LTG core: CT, RTG core: CT)”, the “recombinant barcode read abundance (log10)” value worked out at 1.32.
Then “AGGCCTCCTTGGGTTCTAACCTGTTGCCTCG [AGGCCTCCTAG_LTGcore_CT_RTGcore_CG] (site AGGCCTCCTAG) (LTG core: CT, RTG core: CG)”, with 0.401; and “AGGCCTCCTTGGGTTCTAACCTGTTGCCTTT [AGGCCTCCTAG_LTGcore_CT_RTGcore_AA] (site AGGCCTCCTAG) (LTG core: CT, RTG core: AA)”, with 0.116; and “AGGCCTCGATGGGTTCTAACCTGTTGCCTAG [AGGCCTCCTAG_LTGcore_GA_RTGcore_CT] (site AGGCCTCCTAG) (LTG core: GA, RTG core: CT)”, with 0.24.
Then “AGGCCTCGTTGGGTTCTAACCTGTTGCCTAG [AGGCCTCCTAG_LTGcore_GT_RTGcore_CT] (site AGGCCTCCTAG) (LTG core: GT, RTG core: CT)”, with 0.148.
